The text below walks through data of patent US12226405B2, “Compounds and compositions for inhibiting the activity of HIF2-alpha and their methods of use” (Novartis AG, priority 2020, dated 2025).

The structures appear in SMILES notation. pIC50: −log10 of the molar value.

In general, pIC50 refers to the negative decadic logarithm of the IC50, by convention in mol/L. A higher pIC50 goes with a low IC50.

This assay concerns HIF2α-regulated expression of the endogenous target gene hEGLN3 in 786-O cells. Description: Cellular iScript assay for HIF2α (quantitative RT-PCR of hEGLN3). Format: cell-based, human. The settings on record: Homo sapiens, 786-0, 48 hours incubation. The gist of the method: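 786-O cells were exposed to eleven 2-fold compound dilutions for 48 h at 37° C. Lysates underwent one-step TaqMan qRT-PCR for hEGLN3 with beta-actin as reference; 2^(−ΔΔCt) versus DMSO, as % of control, was fit with a four-parameter model to give IC50.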

The molecule `FC(F)OC1=CC(C(F)(F)F)=CN2C[C@@]3(CCC(F)(F)c4c3ccnc4Cl)N=C12` [Example 31, (S)-1′-chloro-8-(difluoromethoxy)-8′,8′-difluoro-6-(trifluoromethyl)-7′,8′-dihydro-3H,6′H-spiro[imidazo[1,2-a]pyridine-2,5′-isoquinoline]] gave a pIC50 of 7.43.
With `FC(F)OC1=CC(C(F)(F)F)=CN2C[C@@]3(CCOc4cc(C(F)(F)F)ccc43)N=C12` [Example 44, (S)-8′-(difluoromethoxy)-6′,7-bis(trifluoromethyl)-3′H-spiro[chroman-4,2′-imidazo[1,2-a]pyridine]] the figure was 7.19.
